Data from ChEMBL document CHEMBL3046062, “Anti-HIV, antimycobacterial and antimicrobial studies of newly synthesized 1,2,4-triazole clubbed benzothiazoles” (Med Chem Res, 2013).
Converted amounts (≈) assume the structure as drawn.

What was measured:
Aspergillus niger = assay: Antifungal activity against Aspergillus niger MTCC 282 after overnight incubation by broth microdilution method; type: functional
Streptococcus pyogenes = assay: Antibacterial activity against Streptococcus pyogenes MTCC 443 after overnight incubation by broth microdilution method; type: functional
Candida albicans = assay: Antifungal activity against Candida albicans MTCC 227 after overnight incubation by broth microdilution method; type: functional
[1] = Cytotoxicity against Homo sapiens (human) MT4 cells after 5 days by MTT assay; type: cell-based
Aspergillus clavatus = assay: Antifungal activity against Aspergillus clavatus MTCC 323 after overnight incubation by broth microdilution method; type: functional
[2] = test system: Mycobacterium tuberculosis; assay: Antitubercular activity against Mycobacterium tuberculosis H37Rv after 28 days by Lowenstein-Jensen agar method; type: functional; conditions: 672 h
[3] = test system: Human immunodeficiency virus 2; assay: Antiviral activity against Human immunodeficiency virus type 2 (ISOLATE ROD) infected MT4 cells assessed as inhibition of virus-induced cytopathogenicity after 5 days by MTT assay; type: functional, organism-based; conditions: Human immunodeficiency virus 2, ISOLATE ROD, MT4, 120 h
Escherichia coli = assay: Antibacterial activity against Escherichia coli MTCC 442 after overnight incubation by broth microdilution method; type: functional
[4] = Selectivity index, ratio of CC50 for human MT4 cells to IC50 for HIV1 3B; type: functional
Staphylococcus aureus = assay: Antibacterial activity against Staphylococcus aureus MTCC 96 after overnight incubation by broth microdilution method; type: functional
Pseudomonas aeruginosa = assay: Antibacterial activity against Pseudomonas aeruginosa MTCC 2488 after overnight incubation by broth microdilution method; type: functional
[5] = test system: Mycobacterium tuberculosis; assay: Growth inhibition of Mycobacterium tuberculosis H37Rv at MIC after 28 days by Lowenstein-Jensen agar method; type: functional
[6] = test system: Human immunodeficiency virus 1; assay: Antiviral activity against Human immunodeficiency virus 1 IIIB infected MT4 cells assessed as inhibition of virus-induced cytopathogenicity after 5 days by MTT assay; type: functional, organism-based; conditions: MT4, 120 h
[7] = Selectivity index, ratio of CC50 for human MT4 cells to IC50 for HIV2 ROD; type: functional

Structure (SMILES)	MIC99 (Aspergillus niger) [µg/mL]	MIC99 (Streptococcus pyogenes) [µg/mL]	MIC99 (Candida albicans) [µg/mL]	CC50 at 120 h [1] [µg/mL]	MIC99 (Aspergillus clavatus) [µg/mL]	MIC [2] [µg/mL]	IC50 [3] [µg/mL]	MIC99 (Escherichia coli) [µg/mL]	Ratio CC50/IC50 [4]	MIC99 (Staphylococcus aureus) [µg/mL]	MIC99 (Pseudomonas aeruginosa) [µg/mL]	growth inhibition (GI) [5] [%]	IC50 [6] [µg/mL]	Ratio CC50/IC50 [7]
Clc1ccc(-c2nnc(-c3cccnc3)n2Nc2nc3ccc(Cl)cc3s2)cc1	500 (≈ 1140 µM)	500 (≈ 1140 µM)	100 (≈ 228 µM)	54.3 (≈ 124 µM)	1000 (≈ 2280 µM)	250 (≈ 569 µM)	> 54.3	1000 (≈ 2280 µM)	<1	250 (≈ 569 µM)	500 (≈ 1140 µM)	96	> 54.3	<1
COc1ccc2nc(Nn3c(-c4ccc([N+](=O)[O-])cc4)nnc3-c3cccnc3)sc2c1				12.9 (≈ 29 µM)			> 12.9		<1				> 12.9	<1
CO[C@H]1/C=C/O[C@@]2(C)Oc3c(C)c(O)c4c(O)c(c(/C=N/N5CCN(C)CC5)c(O)c4c3C2=O)NC(=O)/C(C)=C\C=C\[C@H](C)[C@H](O)[C@@H](C)[C@@H](O)[C@@H](C)[C@H](OC(C)=O)[C@@H]1C [RIFAMPIN]						40 (≈ 48.6 µM)						99		
O=[N+]([O-])c1ccc(-c2nnc(-c3cccnc3)n2Nc2nc3cc(Cl)c(Cl)cc3s2)cc1				68.7 (≈ 142 µM)			> 68.6		<1				> 68.6	<1
Cc1cccc2sc(NN)nc12				9.8 (≈ 54.7 µM)			> 9.8		<1				> 9.8	<1
O=[N+]([O-])c1ccc(-c2nnc(-c3cccnc3)n2Nc2nc3c([N+](=O)[O-])cccc3s2)cc1				13.8 (≈ 29.9 µM)			> 13.8		<1				> 13.8	<1
NNc1nc2cc(Cl)c(Cl)cc2s1				80 (≈ 342 µM)			> 80		<1				> 80	<1
Clc1ccccc1C(c1ccccc1)(c1ccccc1)n1ccnc1 [CLOTRIMAZOLE]						20.4 (≈ 59.2 µM)						96		
Fc1ccc2nc(Nn3c(-c4ccc(Cl)cc4)nnc3-c3cccnc3)sc2c1	500 (≈ 1180 µM)	500 (≈ 1180 µM)	200 (≈ 473 µM)	92.9 (≈ 220 µM)	500 (≈ 1180 µM)	62.5 (≈ 148 µM)	> 92.9	500 (≈ 1180 µM)	<1	250 (≈ 591 µM)	62.5 (≈ 148 µM)	98	> 92.9	<1
NNc1nc2c(Cl)cccc2s1				117 (≈ 586 µM)			> 117		1				> 117	1
O=[N+]([O-])c1ccc(-c2nnc(-c3cccnc3)n2Nc2nc3ccc(Br)cc3s2)cc1				13.2 (≈ 26.7 µM)			> 13.2		<1				> 13.2	<1
NNc1nc2ccc(F)cc2s1				13.8 (≈ 75.2 µM)			> 13.8		<1				> 13.8	<1
CC1(C)S[C@@H]2[C@H](NC(=O)[C@H](N)c3ccccc3)C(=O)N2[C@H]1C(=O)O [AMPICILLIN]		100 (≈ 286 µM)						100 (≈ 286 µM)		250 (≈ 715 µM)	100 (≈ 286 µM)			
NNc1nc2c([N+](=O)[O-])cccc2s1				14.5 (≈ 68.9 µM)			> 14.5		<1				> 14.5	<1
NNc1nc2ccc(Br)cc2s1				8.01 (≈ 32.8 µM)			> 8.01		<1				> 8.01	<1
NNc1nc2ccc([N+](=O)[O-])cc2s1				12.8 (≈ 60.9 µM)			> 12.8		<1				> 12.8	<1

Structure (SMILES)	MIC99 (Aspergillus niger) [µg/mL]	MIC99 (Streptococcus pyogenes) [µg/mL]	MIC99 (Candida albicans) [µg/mL]	CC50 at 120 h [1] [µg/mL]	MIC99 (Aspergillus clavatus) [µg/mL]	MIC [2] [µg/mL]	IC50 [3] [µg/mL]	MIC99 (Escherichia coli) [µg/mL]	Ratio CC50/IC50 [4]	MIC99 (Staphylococcus aureus) [µg/mL]	MIC99 (Pseudomonas aeruginosa) [µg/mL]	growth inhibition (GI) [5] [%]	IC50 [6] [µg/mL]	Ratio CC50/IC50 [7]
O=[N+]([O-])c1cccc2sc(Nn3c(-c4ccc(Cl)cc4)nnc3-c3cccnc3)nc12	500 (≈ 1110 µM)	250 (≈ 556 µM)	100 (≈ 222 µM)	21.3 (≈ 47.4 µM)	500 (≈ 1110 µM)	500 (≈ 1110 µM)	> 21.3	100 (≈ 222 µM)	<1	200 (≈ 445 µM)	125 (≈ 278 µM)	97	> 21.3	<1
NNc1nc2ccc(Cl)cc2s1				2.48 (≈ 12.4 µM)			> 2.48		<1				> 2.48	<1
Cc1ccc2nc(NN)sc2c1				4.52 (≈ 25.2 µM)			> 4.52		<1				> 4.52	<1
O=[N+]([O-])c1ccc(-c2nnc(-c3cccnc3)n2Nc2nc3ccc(F)cc3s2)cc1				≥ 108			> 108		1				> 108	1
Cc1ccnc2c1NC(=O)c1cccnc1N2C1CC1 [NEVIRAPINE]				> 4					>80				> 0.05	
COC1=CC(=O)C[C@@H](C)[C@]12Oc1c(Cl)c(OC)cc(OC)c1C2=O [GRISEOFULVIN]	100 (≈ 283 µM)		500 (≈ 1420 µM)		100 (≈ 283 µM)									
O=[N+]([O-])c1ccc(-c2nnc(-c3cccnc3)o2)cc1				73.5 (≈ 274 µM)			> 73.5		<1				> 73.5	<1
NNC(=O)c1ccncc1 [ISONIAZID]						0.2 (≈ 1.46 µM)						99		
COc1ccc2nc(NN)sc2c1				14.8 (≈ 75.7 µM)			> 14.8		<1				> 14.8	<1
O=[N+]([O-])c1ccc(-c2nnc(-c3cccnc3)n2Nc2nc3ccc([N+](=O)[O-])cc3s2)cc1				50.8 (≈ 110 µM)			> 50.8		<1				> 50.8	<1
Cc1ccc2nc(Nn3c(-c4ccc([N+](=O)[O-])cc4)nnc3-c3cccnc3)sc2c1				64.4 (≈ 150 µM)			> 64.4		<1				> 64.4	<1
O=[N+]([O-])c1ccc(-c2nnc(-c3cccnc3)n2Nc2nc3ccc(Cl)cc3s2)cc1				53.7 (≈ 119 µM)			> 53.7		<1				> 53.7	<1
Clc1ccc(COC(Cn2ccnc2)c2ccc(Cl)cc2Cl)cc1 (stereo not given) [ECONAZOLE]						12.5 (≈ 32.7 µM)						99		
Cc1cccc2sc(Nn3c(-c4ccc([N+](=O)[O-])cc4)nnc3-c3cccnc3)nc12				13.5 (≈ 31.4 µM)			> 13.5		<1				> 13.5	<1
O=[N+]([O-])c1ccc(-c2nnc(-c3cccnc3)n2Nc2nc3c(Cl)cccc3s2)cc1				15.6 (≈ 34.6 µM)			> 15.5		<1				> 15.5	<1
